{"source": "patent US20230413823A1", "about": "“HYPERLOADED YEAST CELL WALL PARTICLE AND USES THEREOF” (priority 2022, published 2023)", "key": {"Candida albicans SC5134": {"system": "Candida albicans SC5134", "assay": "Antimicrobial microplate assay (MIC 75%)", "type": "cell-based", "procedure": "The antimicrobial activity of YP-GET was evaluated using a modified published microplate assay procedure (Sultanbawa, Y.; Cusack, A.; Currie, M.; Davis, C. An Innovative Microplate Assay to Facilitate the Detection of Antimicrobial 538Activity in Plant Extracts. J. Rapid Meth. Aut. Mic. 2009, 17 (4), 519-534. haps://doi.org/10.111/j.1745-4581.2009.00187.x). Samples of YP-GET were suspended in 100 μL of growth medium (LB 395was used in antibacterial assays and YPD in antifungal assays) and added to the first row 396 (Row A) of a 96-well plate (all wells in the 96-well plate contain additional 100 μL medium). Serial dilutions (1:1) were performed by transferring 100 μL from Row A to Row B, etc., and finally removing 100 μL from Row H. Diluted Escherichia coli Top10 (Invitrogen, Carlsbad CA), Staphylococcus aureus ATCC 19636 or Candida albicans SC5134 cells (100 μL, […]) were added to all wells of the plate. Initial (t=0) and final (t=16 h, 37° C.) absorbance readings were taken at 650 nm."}, "[1]": {"assay": "Payload encapsulation (loading) efficiency in YPs by HPLC", "type": "physicochemical", "procedure": "Samples of YP-GET (10 μL, 10 mg YP/mL) were stained with Nile red (2 μL, 0.1 mg/mL) and fluorescein labeled concanavalin-A (FITC ConA, 2 μL, 0.1 mg/mL) to qualitatively assess loading by the fluorescence microscopy of the encapsulated fluorescent terpene-Nile red complex in the FITC ConA labeled yeast particle. Nile red was imaged using a rhodamine (red) filter (maxi-mum excitation/emission wavelengths at 550/570 nm) and FITC-ConA was imaged with a green filter at 490/520 nm. Microscopy images were collected with an Olympus BX60 upright compound fluorescent microscope. YP GET samples (100 mg) were centrifuged to collect excess liquid (free terpene and water) and the pellet fraction was resuspended in 10 mL of 90% methanol-10% water to extract encapsulated terpenes. Terpenes were quantified by HPLC operated with 32 KARAT™ software version 7.0 (Beckman Coulter, Inc, Brea, CA, USA), using a Waters […]® C18 column (3.5 μm, 4.6×150 mm) with acetonitrile:water 50:50 as mobile phase, flow rate at 1 mL/min, injection volume of 10 μL, and terpene detection at 254 nm. […] The quantification of terpenes was done by measuring the peak area and interpolating the concentration using a calibration curve obtained with terpene standards.\nTerpenes were mixed with water and YPs from two different manufacturers and incubated at room temperature for 48 hours and encapsulation efficiency of terpenes in YPs was measured as described above after incubation at room temperature for 2 days.\n(§1) Dry YPs from two different manufacturers were mixed with water (0.5mL water/g YP) for 30 minutes to obtain a uniform hydrated YP suspension. Limonene was added to the YP sample and incubated at 40° C. for one week to allow for complete limonene loading. Loading efficiency was quantitatively measured by the basic HPLC procedure described above using assay details listed in Table 10 and qualitatively assessed by fluorescence microscopy as described before. Particle diameter was measured as described before.\nas §1, with “(0.5 to 2.5 mL” for “(0.5mL”, “Limonene was added to the YP sample and incubated at 40° C. for one week to allow for complete limonene loading.” left out, “12” for “10”, “above.” for “before.”\nas §1, with “(2.5 to 5 mL” for “(0.5mL”, “Triallate” for “Limonene”, “3 to 7 days” for “one week”, “complete” for “complete limonene”, “14” for “10”\nDry GLPs/YPs were mixed with water (0.5 to 4.5 mL water g GLP/YP) for 30 minutes to obtain a uniform hydrated YP suspension. THC was added to the GLP/YP sample and incubated at 23° C. for 48 hours to allow for complete THC loading. Loading efficiency was quantitatively measured by the basic HPLC procedure described above using assay details listed in Table 16 and qualitatively assessed by fluorescence microscopy as described above. Particle diameter was measured as described above.\nTwo different kinds of dry YPs were mixed with water (0.5 to 4.5 mL water/g YP) for 30 minutes to obtain a uniform hydrated YP suspension. λCy was added to the YP sample and incubated at 55° C. for one week to allow for complete λCy loading. Loading efficiency was quantitatively measured by the basic HPLC procedure described above using assay details listed in Table 18 and qualitatively assessed by fluorescence microscopy as described before. Particle diameter was measured as described before.\nPTP is highly soluble in acetone and dichloromethane. […]"}, "[2]": {"assay": "Solubility in organic loading and leave-in solvents"}, "[3]": {"details": "cited from earlier work; for water/octanol partition coefficient (log P): chemical and physical properties tables"}, "H. pylori": {"system": "H. pylori", "details": "concentration of 2 mg/L; cited from earlier work"}, "C. albicans": {"system": "C. albicans", "details": "cited from earlier work"}, "S. cerevisiae": {"system": "S. cerevisiae", "details": "cited from earlier work"}, "[4]": {"details": "cited from earlier work"}, "[5]": {"assay": "Payload release from YPs upon dilution in water (HPLC of supernatant)", "type": "physicochemical", "procedure": "Sustained payload release from YPs occurs by payload diffusion out of the particles and is a function of the payload's solubility in water. […] Samples were incubated at room temperature. Amount of triallate released from the particles into the supernatant was quantified by HPLC as described before.\nλCy-YP samples loaded at a w/w λCy:YP ratio of 1:1 were diluted in water ±surfactant (1% w/v IGEPAL) at target λCy concentrations of 0.001, 0.01, 0.1 and 1 mg/mL. Samples were incubated at room temperature for 3 hours. Supernatant was collected to measure amount of λCy released from the particles. The amount of λCy was quantified by HPLC as described above.\nPTP-YP samples prepared without leave in solvent or with leave-in solvent GET424 or DMDA. Samples carrying PTP:YP weight ratio 1:1, PTP:GET:YP ratio of 1:1:1 or PTP:DMDA:YP ratio of 1:1:1 were diluted in water at a target PTP concentration of 0.001, 0.01, 0.1 and 1 mg/mL. Samples were incubated at room temperature. Supernatant was collected to measure amount of payload released from the particles."}, "physchem": {"assay": "physchem", "details": "organic solvent or mixture"}, "[6]": {"details": "Table 21, cited from earlier work"}, "[7]": {"details": "chemical and physical properties tables"}}, "note": "Like-named read-outs stand apart in the source and are kept apart here.", "data": [{"compound": "OC(Cn1cncn1)(Cn1cncn1)c1ccc(F)cc1F", "note": "[Fluconazole]", "values": [{"measurement": "fold lower concentration than YP GET to reach MIC 75%", "setting": "Candida albicans SC5134", "result": 10, "unit": "fold"}]}, {"compound": "C=C(C)[C@H]1CC=C(C)CC1", "note": "[Limonene]", "values": [{"measurement": "loading efficiency", "setting": "[1]; limonene:YP ratio of 3:1, both types of YPs", "result": "high efficiency"}]}, {"compound": "C=C(C)[C@@H]1CCC(C)=C[C@H]1c1c(O)cc(CCCCC)cc1O", "note": "[CBD, cannabidiol]", "values": [{"measurement": "encapsulation efficiency", "setting": "[1]; 3:1 (CBD+OA):GLP ratio, OA leave-in solvent", "result": "high encapsulation efficiency"}, {"measurement": "encapsulation efficiency", "setting": "[1]; CBD:YP weight ratios up to 5:1, multiple loading cycles, GLPs", "result": "high encapsulation efficiency"}, {"measurement": "solubility", "setting": "[2]; DMSO, organic solvent or mixture", "result": 200000, "unit": "µg/mL"}, {"measurement": "solubility", "setting": "[2]; GET424, organic solvent or mixture", "result": 10000, "unit": "µg/mL"}, {"measurement": "CBD Solubility Ethanol", "setting": "[2]; ethanol", "result": "Miscible at 1:1 weight ratio*"}, {"measurement": "CBD Solubility Methanol", "setting": "[2]; methanol", "result": "Miscible at 1:1 weight ratio*"}, {"measurement": "CBD Solubility Octanoic Acid (OA)", "setting": "[2]; octanoic acid", "result": "Miscible at 0.5:1 CBD:OA ratio"}]}, {"compound": "Clomazone", "values": [{"measurement": "clomazone located inside YPs", "setting": "[1]; clomazone:YP w/w ratios up to 5:1, no solvent", "result": "96-100%"}, {"measurement": "Log P", "setting": "[3]; Table 1", "result": 2.5}, {"measurement": "water/octanol partition coefficient (log P)", "setting": "[3]", "result": 2.5}]}, {"compound": "CC(C)=CCC/C(C)=C/CO", "note": "[Geraniol]", "values": [{"measurement": "in vitro growth of H. pylori", "setting": "H. pylori", "result": "inhibited"}, {"measurement": "growth of C. albicans strains", "setting": "C. albicans", "result": "inhibit the growth"}, {"measurement": "growth of S. cerevisiae strains", "setting": "S. cerevisiae", "result": "inhibit the growth"}, {"measurement": "Maximum solubility in water", "setting": "[4]; Table 1", "result": 686, "unit": "µg/mL"}, {"measurement": "Solubility in Water", "setting": "[4]; Table 2", "result": 686, "unit": "µg/mL"}, {"measurement": "Maximum solubility in water", "setting": "[4]; terpenes in the GET composition", "result": 686, "unit": "µg/mL"}, {"measurement": "Log P", "setting": "[3]; water/octanol, Table 2", "result": 3.56}]}, {"compound": "CCCCCc1cc(O)c2c(c1)OC(C)(C)[C@@H]1CCC(C)=C[C@@H]21", "note": "[Tetrahydrocannabinol (THC), Tetrahydrocannabinol, reference compound]", "values": [{"measurement": "loading efficiency", "setting": "[1]; THC:YP ratio of up to 5:1", "result": "high efficiency"}, {"measurement": "Maximum solubility in water", "setting": "[4]; Table 1", "result": 2.8, "unit": "µg/mL"}, {"measurement": "Solubility in Water", "setting": "[4]; [7]", "result": 2.8, "unit": "µg/mL"}, {"measurement": "Log P", "setting": "[3]; Table 1", "result": 5.9}, {"measurement": "water/octanol partition coefficient (log P)", "setting": "[3]", "result": 5.9}]}, {"compound": "CC(C)CC(C)c1sccc1NC(=O)c1cn(C)nc1C(F)(F)F", "note": "(stereo not drawn) [PTP, Penthiopyrad]", "values": [{"measurement": "PTP release from YPs", "setting": "[5]; DMDA leave-in solvent, PTP:DMDA:YP 1:1:1", "result": "improved release at 0.1 and 0.01 mg PTP/mL"}, {"measurement": "PTP release from YPs", "setting": "[5]; GET424 leave-in solvent, PTP:GET:YP 1:1:1", "result": "improved release at 0.01 mg PTP/mL"}, {"measurement": "PTP release from YPs", "setting": "[5]; without a leave-in solvent, PTP:YP 1:1", "result": "released from YPs only at a concentration above maximum solubility in water"}, {"measurement": "solubility", "setting": "physchem", "result": 200000, "unit": "µg/mL"}]}, {"compound": "CC1(C)C(/C=C(\\Cl)C(F)(F)F)[C@H]1C(=O)O[C@H](C#N)c1cccc(Oc2ccccc2)c1", "note": "(stereo partly drawn) [Lambda cyhalotrin]", "values": [{"measurement": "payload encapsulation", "setting": "[1]; λCy:YP ratios up to 5:1, no solvent", "result": "77-90%"}, {"measurement": "λCy release from YPs", "setting": "[5]; dilution to 0.001 mg λCy/mL, λCy:YP 1:1, 3 hours room temperature", "result": "over 80%"}, {"measurement": "Maximum solubility in water", "setting": "[4]; Table 1", "result": 0.005, "unit": "µg/mL"}, {"measurement": "Solubility in Water", "setting": "[4]; [7]", "result": 2.8, "unit": "µg/mL"}, {"measurement": "Log P", "setting": "[3]; Table 1", "result": 7.0}, {"measurement": "water/octanol partition coefficient (log P)", "setting": "[3]", "result": 7.0}]}, {"compound": "OC(Cc1ccccc1Cl)(Cn1nc[nH]c1=S)C1(Cl)CC1", "note": "(stereo not drawn) [prothioconazole]", "values": [{"measurement": "encapsulation efficiency", "setting": "[1]; PRO:YP ratios up to 3:1, three loading cycles, acetone", "result": "more than 83%"}, {"measurement": "Solubility Water", "setting": "[4]; Table 21", "result": 22.5, "unit": "µg/mL"}, {"measurement": "Solubility DMSO", "setting": "[6]; DMSO", "result": 126000, "unit": "µg/mL"}, {"measurement": "Solubility Acetone", "setting": "[6]; acetone", "result": 444000, "unit": "µg/mL"}, {"measurement": "Solubility Ethyl acetate", "setting": "[6]; ethyl acetate", "result": 220000, "unit": "µg/mL"}, {"measurement": "water/octanol partition coefficient (log P)", "setting": "[3]", "result": 4.05}]}, {"compound": "CC(C)N(C(=O)SCC(Cl)=C(Cl)Cl)C(C)C", "note": "[Triallate]", "values": [{"measurement": "triallate located inside YPs", "setting": "[1]; triallate:YP w/w ratios up to 4:1, no solvent", "result": "94 -100%"}, {"measurement": "release of triallate from the YP", "setting": "[5]; dilution to 0.001 mg/mL, triallate:YP 3:1 and 4:1", "result": "~100", "unit": "%"}]}]}
